In patent publication US12486270B2, “Receptor tyrosine kinase inhibitors for treatment of protein kinase modulation-responsive disease or disorder” (THE UNITED STATES OF AMERICA, as represented by the …, priority 2019, dated 2025):
Blank lines part the entries; values can stand above or below the molecule they belong to.

What was measured:
LC3B [1] = experiment: LC3B accumulation in SW620 cells; assay type: cell-based, human; conditions: pre-treatment 4 hours; spautin 5 μM, 3-MA 5 mM
Description: Western blotting. Protein lysates were separated by SDS-PAGE and then transferred to a nitrocellulose membrane. After blocking, membranes were incubated overnight with antibodies to LC3 (rabbit Monoclonal antibody, Cell Signaling). After washing with TBS-T (TBS with 0.05 Tween-20), membranes were incubated with the HRP (Horseradish peroxidase)-linked secondary antibody (IgG donkey anti-rabbit IgG (NA934) (GE LifeSciences, Marlborough, MA). Blots were developed using ECL prime (GE LifeSciences, RPN2232) and digitally captured on an LAS4000 (GE LifeSciences). After stripping, the membrane was re-probed with a mouse monoclonal antibody to GAPDH (Santa Cruz) followed by a secondary IgG sheep anti-mouse IgG (NA931). Western blot bands were quantified using Fiji (Schindelin et al., 2012).

LC3B [2] = experiment: LC3B autophagy marker by immunoblotting in HT-29 cells; assay type: cell-based, human; conditions: for LC3B accumulation in cells treated with 1 μM NVP or NVP-Iso: spautin 5 μM, 3-MA 5 mM, chloroquine 10 μM
Description: Western blotting. Protein lysates were separated by SDS-PAGE and then transferred to a nitrocellulose membrane. After blocking, membranes were incubated overnight with antibodies to LC3 (rabbit Monoclonal antibody, Cell Signaling).

HT-29 cells = experiment: HT-29 cell proliferation (3H-thymidine incorporation); assay type: cell-based, human; conditions: co-treatment with autophagy inhibitor, 72 hours
EphA2 [3] = molecular target: T1, EphA2 (Homo sapiens (Human), UniProt P29317); experiment: Binding affinity to EphA2 by microscale thermophoresis (MST); conditions: for Kd: towards EphA2
From the text: The binding affinities of the compounds to EphA2 were investigated by microscale thermophoresis (MST) (M. Jerabek-Willemsen et al., J. Mol. Struct. 2014, 1077, 101-113).

EphB4 = EphB4 (Homo sapiens (Human), UniProt P54760); experiment: Endogenous EphB4 tyrosine phosphorylation by ELISA in HT29 cell lysates; assay type: cell-based; conditions: for reduction of EphB4 phosphorylation: at 2 μM
Description: (§1) ELISA. ELISA plates (ThermoFisher Scientific, Immulon 4HBX, 3855) were coated overnight at 4° C. with capture antibody 75 ng/well in PBS, and blocked with 5% BSA (Sigma-Aldrich, St. Louis, MO) in PBS for two hours at room temperature. Capture antibodies for EphB4 was goat polyclonal antibody (R&D Systems AF3038); for EphA2 was goat polyclonal antibody (R&D Systems AF3035); 10 ug of cell lysate was applied to the ELISA well for two hours at room temperature. The amount of tyrosine phosphorylation was measured with pTyr-HRP antibody (R&D Systems, HAM1676). The ELISA was developed with 3,3′,5,5′-Tetramethylbenzidine (TMB) (ThermoFisher Scientific, 7588927) for 15 minutes and stopped with 1M H2SO4 (Sigma-Aldrich, 258105). Absorbance at 450 nm was measured using POLARstar Optima plate reader (BMG Labtech, Cary, NC). All conditions were tested in duplicate. pEphB2 was measured by ELISA (Ray Biotech, PEL-EphB2-Y) according to the manufacturer's recommendations.

EphB2 = EphB2 (Homo sapiens (Human), UniProt P29323); experiment: Endogenous EphB2 tyrosine phosphorylation by ELISA in Colo-205 cell lysates; assay type: cell-based; conditions: for reduction of EphB2 phosphorylation: at 2 μM
Description: as §1

SW620 = experiment: Cell cycle analysis by flow cytometry in colorectal cancer cells (SW620); assay type: cell-based, human; conditions: 72 hours; compared to control and NVP/NVP-Iso
Description: Cell cycle was assessed by flow cytometry. Adherent cells were harvested, washed with PBS and fixed for 30 minutes in cold 70% ethanol at 4° C. Cells were washed twice with PBS, treated with 2.5 μg/mL RNaseA (ThermoFisher, 12091039) for 30 minutes at room temperature, and then stained with 10 μg propidium iodide for 15 minutes prior to analysis performed on FACS Canton (BD Biosciences; San Jose, CA) and cell cycled analyzed (FloJo software).

EphA2 [4] = molecular target: T1, EphA2; experiment: Endogenous EphA2 tyrosine phosphorylation by ELISA in RKO cell lysates; assay type: cell-based; conditions: for reduction of EphA2 phosphorylation: at 2 μM
Description: as §1

SW620 cells = experiment: Cleaved caspase-3 immunofluorescence microscopy in colorectal cancer cells (SW620); assay type: cell-based, human; conditions: 72 hours
Description: Cell viability was also measured by detection of cell-associated cleaved caspase-3. Cells were grown on gelatin-coated glass chamber slides, fixed in 4% paraformaldehyde, immune-stained with rabbit monoclonal antibody to cleaved Caspase 3 (1:100 Cell Signaling Technology) followed by Alexa Fluor 488-conjugated anti-rabbit IgG (1:400 Invitrogen) and mounted with Vectastain containing DAPI (Vector Laboratories). The slides were imaged through a Zeiss LSM780 confocal microscope. Image quantification (cleaved Caspase-3^+ nucleiltotal nuclei) was performed by CellProfiler software.

MG63 = MG63 proliferation (specificity control); assay type: cell-based, human; conditions: 125-2000 nM
LC3 = LC3 autophagic puncta imaging in HT-29 cells transduced with fluorescent LC3; assay type: cell-based, human
Description: Autophagy-related cell death was assessed by evaluation of LC3 autophagy-associated protein. The cells were first induced to stably express fluorescent pK (pHluorin-mKate2) LC3 by lentiviral infection. The cells were subsequently grown on glass coverslips (ThermoFisher, 12-545-81) until 50% confluent. Coverslips were washed with PBS −/−, fixed with 4% PEA for 15 minutes at room temperature, washed with TBS, mounted with DAPI-containing mounting media, allowed to harden overnight and sealed. Coverslips were imaged on a confocal Zeiss 780 microscope. Images were analyzed by CellProfiler using automatic thresholding to calculate the number of nuclei (DAPI staining) and the number of puncta. The results are expressed as the percent cells with two or more puncta. […] Monolayer cell confluency overtime was measured by IncuCyte HD (Essen BioSciences) imaging.
Immunostaining and microscopy. […] Maximum intensity projections (Zen Software 2.3 Blue Edition; Carl Zeiss) were used for quantification using CellProfiler software (Kamentsky et al., Bioinformatics 2011, 27:1179-1180) with automatic thresholding. Integrated intensity of CD31 was measured. The percent Ki-67 positive cells was measured by calculating the number of Ki-67 positive cells/total number DAPI^+ nuclei. The area of cleaved Caspase-3 positive area/total area was calculated by CellProfiler with automatic threshold. […]

HUVEC = HUVEC proliferation (specificity control); assay type: cell-based, human; conditions: 125-2000 nM
[5] = test system: colorectal carcinoma cell lines; experiment: Proliferation of 10 colorectal carcinoma cell lines; assay type: cell-based, human; conditions: 1 μM, all colorectal carcinoma cell lines

T1 sequence (P29317 24-976): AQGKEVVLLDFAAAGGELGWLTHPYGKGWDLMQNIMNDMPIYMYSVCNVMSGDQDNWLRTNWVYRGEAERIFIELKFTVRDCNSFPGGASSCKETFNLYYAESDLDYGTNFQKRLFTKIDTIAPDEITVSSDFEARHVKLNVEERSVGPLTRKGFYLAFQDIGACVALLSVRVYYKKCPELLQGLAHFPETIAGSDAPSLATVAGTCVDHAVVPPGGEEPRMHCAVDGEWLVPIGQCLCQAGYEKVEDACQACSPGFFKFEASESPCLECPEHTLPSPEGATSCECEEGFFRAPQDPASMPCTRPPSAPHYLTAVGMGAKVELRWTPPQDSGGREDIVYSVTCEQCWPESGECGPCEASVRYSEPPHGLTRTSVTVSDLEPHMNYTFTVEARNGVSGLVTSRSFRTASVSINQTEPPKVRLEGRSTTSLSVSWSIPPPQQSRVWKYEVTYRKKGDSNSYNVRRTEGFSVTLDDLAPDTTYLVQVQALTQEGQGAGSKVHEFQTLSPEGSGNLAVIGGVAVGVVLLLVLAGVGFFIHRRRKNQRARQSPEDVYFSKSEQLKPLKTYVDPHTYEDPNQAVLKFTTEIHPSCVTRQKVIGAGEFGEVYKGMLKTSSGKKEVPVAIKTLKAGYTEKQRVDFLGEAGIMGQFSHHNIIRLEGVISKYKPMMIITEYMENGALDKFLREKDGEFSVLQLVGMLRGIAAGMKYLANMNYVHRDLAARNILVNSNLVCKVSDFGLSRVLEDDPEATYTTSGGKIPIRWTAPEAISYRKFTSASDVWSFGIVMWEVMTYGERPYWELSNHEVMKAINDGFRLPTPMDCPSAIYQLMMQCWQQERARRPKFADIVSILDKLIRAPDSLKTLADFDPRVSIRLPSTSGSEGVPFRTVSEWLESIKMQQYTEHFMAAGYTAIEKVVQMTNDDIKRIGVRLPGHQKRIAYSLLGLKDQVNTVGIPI
Sequence of EphB2 (P29323 19-1055): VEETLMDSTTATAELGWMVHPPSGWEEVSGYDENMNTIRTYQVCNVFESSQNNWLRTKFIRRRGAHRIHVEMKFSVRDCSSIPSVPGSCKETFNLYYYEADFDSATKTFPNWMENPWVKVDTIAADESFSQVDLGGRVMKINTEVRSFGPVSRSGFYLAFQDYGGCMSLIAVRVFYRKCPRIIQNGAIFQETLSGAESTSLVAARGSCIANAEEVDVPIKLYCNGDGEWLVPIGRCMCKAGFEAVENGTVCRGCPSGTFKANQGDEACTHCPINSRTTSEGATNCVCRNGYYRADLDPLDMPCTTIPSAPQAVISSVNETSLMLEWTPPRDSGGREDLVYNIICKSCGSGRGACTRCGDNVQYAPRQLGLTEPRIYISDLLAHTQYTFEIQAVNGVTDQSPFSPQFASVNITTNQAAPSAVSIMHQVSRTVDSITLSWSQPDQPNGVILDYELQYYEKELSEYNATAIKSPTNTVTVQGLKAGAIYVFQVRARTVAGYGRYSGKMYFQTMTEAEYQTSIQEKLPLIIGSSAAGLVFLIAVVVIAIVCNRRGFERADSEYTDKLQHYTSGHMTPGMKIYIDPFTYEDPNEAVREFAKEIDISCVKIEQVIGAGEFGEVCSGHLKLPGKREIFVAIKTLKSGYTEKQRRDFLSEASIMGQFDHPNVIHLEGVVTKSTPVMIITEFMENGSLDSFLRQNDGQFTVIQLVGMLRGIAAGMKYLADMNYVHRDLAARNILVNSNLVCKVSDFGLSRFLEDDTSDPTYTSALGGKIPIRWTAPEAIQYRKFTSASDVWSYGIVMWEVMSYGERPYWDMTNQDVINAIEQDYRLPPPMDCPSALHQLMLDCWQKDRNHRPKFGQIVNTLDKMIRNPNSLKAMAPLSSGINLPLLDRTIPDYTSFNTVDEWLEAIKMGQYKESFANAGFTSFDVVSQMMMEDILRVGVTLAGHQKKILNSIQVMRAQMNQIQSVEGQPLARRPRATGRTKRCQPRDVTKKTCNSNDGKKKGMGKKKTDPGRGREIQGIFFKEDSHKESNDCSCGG
Sequence of EphB4 (P54760 16-987): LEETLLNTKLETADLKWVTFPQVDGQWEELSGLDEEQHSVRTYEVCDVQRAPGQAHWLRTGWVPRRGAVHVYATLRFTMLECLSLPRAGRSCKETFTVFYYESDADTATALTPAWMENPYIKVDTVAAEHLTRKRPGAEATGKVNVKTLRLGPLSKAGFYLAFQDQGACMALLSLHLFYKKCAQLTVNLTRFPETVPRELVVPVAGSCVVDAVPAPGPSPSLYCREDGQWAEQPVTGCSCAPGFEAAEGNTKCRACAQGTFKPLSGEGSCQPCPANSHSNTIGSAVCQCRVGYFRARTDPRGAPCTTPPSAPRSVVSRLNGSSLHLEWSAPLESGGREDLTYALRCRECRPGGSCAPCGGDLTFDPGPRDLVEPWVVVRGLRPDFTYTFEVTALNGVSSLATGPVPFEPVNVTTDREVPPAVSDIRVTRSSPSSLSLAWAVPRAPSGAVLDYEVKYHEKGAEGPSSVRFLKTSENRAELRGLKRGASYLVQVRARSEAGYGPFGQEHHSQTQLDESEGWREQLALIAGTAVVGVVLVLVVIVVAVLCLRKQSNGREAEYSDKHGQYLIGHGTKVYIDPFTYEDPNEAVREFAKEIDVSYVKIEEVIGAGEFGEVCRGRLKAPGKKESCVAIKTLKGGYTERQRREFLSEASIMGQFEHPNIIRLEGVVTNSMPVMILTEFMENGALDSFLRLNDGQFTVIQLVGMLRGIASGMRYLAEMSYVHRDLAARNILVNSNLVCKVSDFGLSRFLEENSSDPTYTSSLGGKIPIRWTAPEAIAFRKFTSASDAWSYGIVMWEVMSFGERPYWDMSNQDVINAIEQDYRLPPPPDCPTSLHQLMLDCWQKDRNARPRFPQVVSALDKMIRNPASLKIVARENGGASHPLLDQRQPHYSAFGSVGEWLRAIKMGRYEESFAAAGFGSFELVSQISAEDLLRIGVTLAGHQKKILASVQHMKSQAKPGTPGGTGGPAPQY

Compound: Cn1cnc(N)c2ncnc1-2 [3-Methyladenine]
- LC3B accumulation induced by NVP and NVP-Iso in SW620 cells (LC3B [1]): reduces this LC3B accumulation
- LC3B accumulation in cells treated with 1 μM NVP or NVP-Iso (LC3B [2]): reduced accumulation of LC3B
- anti-proliferative effects of NVP and NVP-Iso in colorectal cancer cells (HT-29 cells): mitigated the anti-proliferative

- fold lower binding affinity towards EphA2 (EphA2 [3]; compared with @1 and @3): 44 fold
- Kd (EphA2 [3]): 132 nM
Compound: Cc1ccc(C(=O)Nc2cccc(C(F)(F)F)c2)cc1Nc1nc(-c2cnccn2)nc2nn(C)cc12 [@2, 4-Methyl-3-((2-methyl-6-(pyrazin-2-yl)-2H-pyrazolo[3,4-d]pyrimidin-4-yl)amino)-N-(3-(trifluoromethyl)-phenyl)benzamide]

Compound: Cc1ccc(C(=O)Nc2cccc(C(F)(F)F)c2)cc1Nc1nc(-c2cncnc2)nc2c1cnn2C [@3, 4-Methyl-3-((1-methyl-6-(pyrimidin-5-yl)-1H-pyrazolo[3,4-d]pyrimidin-4-yl)amino)-N-(3-(trifluoromethyl)phenyl)benzamide]
- inhibitory activity for p-EphB4 compared to NVP (EphB4; four hours treatment): comparable or only slightly reduced inhibitory activity
- induction of autophagosome marker LC3B (immunoblotting) (LC3B [2]; 72-hour incubation): failure
- inhibitory activity for p-EphB2 compared to NVP (EphB2; four hours treatment): comparable or only slightly reduced inhibitory activity
- distribution of cells within the cell cycle (SW620): marked reduction of the proportion of cells within the G2M phase
- inhibitory activity for p-EphA2 compared to NVP (EphA2 [4]; four hours treatment): comparable or only slightly reduced inhibitory activity
- cleaved caspase-3 detection in treated cells (SW620 cells): only in a minority of cells

- Kd (EphA2 [3]): 86 nM
Compound: Cc1ccc(C(=O)Nc2cccc(C(F)(F)F)c2)cc1Nc1nc(-c2cccnc2)nc2ccccc12 [@4, 4-Methyl-3-((2-(pyridin-3-yl)quinazolin-4-yl)amino)-N-(3-(trifluoromethyl)phenyl)benzamide]

- reduction of EphB4 phosphorylation (EphB4): marginal reduction
- reduction of EphB2 phosphorylation (EphB2): marginal reduction
- Kd (EphA2 [3]): 225 nM
- reduction of EphA2 phosphorylation (EphA2 [4]): marginal reduction
Compound: Cc1ccc(C(=O)Nc2cccc(C(F)(F)F)c2)cc1Nc1nc(-c2cccnc2)nc2ncccc12 [@5, 4-Methyl-3-((2-(pyridin-3-yl)pyrido[2,3-d]pyrimidin-4-yl)amino)-N-(3-(trifluoromethyl)phenyl)benzamide]

- Kd (EphA2 [3]): 24 nM
Compound: Cc1ccc(C(=O)Nc2cccc(C(F)(F)F)c2)cc1Nc1nc(-c2cccnc2)nc(-c2cccnc2)n1 [@6, 3-((4,6-Di(pyridin-3-yl)-1,3,5-triazin-2-yl)amino)-4-methyl-N-(3-(trifluoromethyl)phenyl)benzamide]

- Kd (EphA2 [3]): ~2880 nM
Compound: Cc1cc(C(=O)Nc2cccc(C(F)(F)F)c2)ccc1Nc1nc(-c2cnccn2)nc2nn(C)cc12 [@7]

- Kd (EphA2 [3]): 34 nM
Compound: Cc1cc(C(=O)Nc2cccc(C(F)(F)F)c2)ccc1Nc1nc(N2CCCC2)nc(-n2ccnc2)n1 [@9]

Compound: Cc1ccc(C(=O)Nc2cccc(C(F)(F)F)c2)cc1Nc1nc(N2CCOCC2)nc(-n2ccnc2)n1 [@10, 3-((4-(1H-imidazol-1-yl)-6-morpholino-1,3,5-triazin-2-yl)amino)-4-methyl-N-(3-(trifluoromethyl)phenyl)benzamide]
- reduction of EphB4 phosphorylation (EphB4): marginal reduction
- reduction of MG63 cell proliferation (MG63): moderately inhibitory
- reduction of EphB2 phosphorylation (EphB2): marginal reduction
- Kd (EphA2 [3]): 191 nM
- reduction of EphA2 phosphorylation (EphA2 [4]): marginal reduction
- LC3-related autophagy puncta (LC3; 72 hours): also induced LC3B-related puncta
- reduction of HUVECs proliferation (HUVEC): moderately inhibitory

- Kd (EphA2 [3]): 443 nM
Compound: Cc1cc(C(=O)Nc2cccc(C(F)(F)F)c2)ccc1Nc1nc(N2CCNCC2)nc(-n2ccnc2)n1 [@11]

- Kd (EphA2 [3]): 132 nM
Compound: Cc1cc(C(=O)Nc2cccc(C(F)(F)F)c2)ccc1Nc1nc(N2CC[C@H](O)C2)nc(-n2ccnc2)n1 [@12]

- Kd (EphA2 [3]): 97 nM
Compound: Cc1ccc(C(=O)Nc2cccc(Cl)c2)cc1Nc1nc(N2CC[C@H](O)C2)nc(-n2ccnc2)n1 [@13, (S)-N-(3-chlorophenyl)-3-((4-(3-hydroxypyrrolidin-1-yl)-6-(1H-imidazol-1-yl)-1,3,5-triazin-2-yl)amino)-4-methylbenzamide]

Compound: Cc1ccc(C(=O)Nc2cccc(C(F)(F)F)c2)cc1Nc1nc(-c2cccnc2)nc2c1cnn2C [NVP, NVP-BHG712]
- reduction of proliferation [5]: > 50%

Compound: Fc1ccc(CNc2ncnc3ccc(F)cc23)cc1 [Spautin, spautin-1]
- LC3B accumulation induced by NVP and NVP-Iso in SW620 cells (LC3B [1]): reduces this LC3B accumulation
- LC3B accumulation in cells treated with 1 μM NVP or NVP-Iso (LC3B [2]): reduced accumulation of LC3B
- LC3-related puncta/cell increased by NVP and NVP-Iso (LC3; spautin 4-hour pretreatment): reduces this drug-effect
- anti-proliferative effects of NVP and NVP-Iso in colorectal cancer cells (HT-29 cells): mitigated the anti-proliferative

Compound: CCN(CC)CCCC(C)Nc1ccnc2cc(Cl)ccc12 (centres unmarked) [chloroquine, Chloroquine]
- LC3B accumulation in cells treated with 1 μM NVP or NVP-Iso (LC3B [2]): enhanced the accumulation of LC3B
